Data set [1] concerns the target T1, Tryptase beta-1 (Homo sapiens, UniProt Q15661). Nature of the data set: Binding affinity to human tryptase beta2.
In another data set the target is Trypsin (Homo sapiens, UniProt P07477+P07478+P35030). Nature of the data set: Binding affinity to trypsin. The format is protein assay.
A short description of data set [2]: Binding affinity to elastase. The arrangement: species or system Homo sapiens.
Data set [3] can be described thus: Cmax in iv or po dosed rat. To be noted: in vivo. The format is ADME, organism-based.
Data set [4] is described as follows: Clearance in iv or po dosed rat. The format is ADME, organism-based. The conditions noted are these: in vivo.
Data set [5] in a line: Volume of distribution in iv or po dosed rat. The class given is ADME, organism-based. To be noted: in vivo, read-out: Vc.
Data set [6] addresses T2, Tryptase (Mus musculus, UniProt Q02844).
T2 sequence (Q02844 whole entry): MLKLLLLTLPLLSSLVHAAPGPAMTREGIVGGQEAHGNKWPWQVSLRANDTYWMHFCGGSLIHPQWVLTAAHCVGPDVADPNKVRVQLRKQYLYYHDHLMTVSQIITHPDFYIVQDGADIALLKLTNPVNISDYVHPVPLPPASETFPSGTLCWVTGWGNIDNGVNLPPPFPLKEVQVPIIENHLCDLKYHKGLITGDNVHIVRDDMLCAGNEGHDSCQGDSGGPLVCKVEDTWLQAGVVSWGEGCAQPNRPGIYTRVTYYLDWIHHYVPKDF
Briefly: Binding affinity to mouse tryptase.

The target in data set [7] is T3, Tryptase (Rattus norvegicus, UniProt P27435).
T3 sequence (P27435 whole entry): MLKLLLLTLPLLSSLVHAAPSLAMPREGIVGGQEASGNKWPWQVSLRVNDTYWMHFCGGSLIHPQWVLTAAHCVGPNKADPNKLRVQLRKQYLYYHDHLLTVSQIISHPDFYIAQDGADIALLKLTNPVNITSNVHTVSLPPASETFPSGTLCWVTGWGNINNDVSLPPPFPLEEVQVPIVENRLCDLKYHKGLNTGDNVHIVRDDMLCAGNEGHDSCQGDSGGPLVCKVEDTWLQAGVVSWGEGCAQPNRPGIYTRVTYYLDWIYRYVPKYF
Nature of the data set: Binding affinity to rat tryptase.

Data set [8] deals with T1, Tryptase beta-1. Briefly: Binding affinity to recombinant cynomolgus monkey tryptase.
The target of data set [9] is Tryptase (Canis lupus familiaris, UniProt P15944). Briefly: Binding affinity to dog tryptase.
Data set [10] in a line: Mean residence time in iv or po dosed rat. The conditions noted are these: in vivo, read-out: Vdss. The class given is ADME, organism-based.
Data set [11] is described as follows: AUC in iv or po dosed rat. The format is ADME, organism-based. To be noted: plasma.
A short description of data set [12]: Oral absorption in iv or po dosed rat. The format is ADME, organism-based. To be noted: in vivo.
Data set [13] is described as follows: Oral bioavailability in iv or po dosed rat. To be noted: in vivo. The class given is ADME, organism-based.
A short description of data set [14]: Bioavailability in ip dosed mouse. The format is ADME, organism-based. To be noted: in vivo.

T1 sequence (Q15661 whole entry): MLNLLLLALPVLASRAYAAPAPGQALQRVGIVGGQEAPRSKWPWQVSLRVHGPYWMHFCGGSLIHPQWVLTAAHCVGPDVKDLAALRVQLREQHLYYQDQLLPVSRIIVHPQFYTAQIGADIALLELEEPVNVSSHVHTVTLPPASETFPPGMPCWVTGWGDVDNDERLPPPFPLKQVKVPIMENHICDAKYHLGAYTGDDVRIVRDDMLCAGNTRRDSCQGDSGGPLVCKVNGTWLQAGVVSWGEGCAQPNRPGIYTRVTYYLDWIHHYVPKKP
Chain of Tryptase (Canis lupus familiaris, UniProt P15944) (P15944 whole entry): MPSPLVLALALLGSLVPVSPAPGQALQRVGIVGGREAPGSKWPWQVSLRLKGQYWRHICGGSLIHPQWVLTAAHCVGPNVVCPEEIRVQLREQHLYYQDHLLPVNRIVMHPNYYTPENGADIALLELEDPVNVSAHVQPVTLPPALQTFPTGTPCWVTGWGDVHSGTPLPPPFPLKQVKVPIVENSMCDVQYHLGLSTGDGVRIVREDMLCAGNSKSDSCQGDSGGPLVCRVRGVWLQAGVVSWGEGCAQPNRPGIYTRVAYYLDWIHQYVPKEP

`NCCCC[C@H](NC(=O)OCc1ccccc1)C(=O)c1noc(Cc2ccc(OCCc3cccc(Cl)c3)cc2)n1`: on Tryptase beta-1 [1], the Ki (in general, the equilibrium dissociation constant of an inhibitor or competing ligand from its target) worked out at 13 nM. This molecule displayed a Ki app at Trypsin of 190 nM.
Take `NCCCC[C@H](NC(=O)OCc1ccccc1)C(=O)c1noc(Cc2cccc(OCCc3ccccc3)c2)n1`: the Ki on Tryptase beta-1 [1] was found to be 360 nM. At Trypsin, this molecule yielded a Ki app of 82 nM.
As to `NCCC[C@H](NC(=O)OCc1ccccc1)C(=O)c1noc(Cc2ccccc2)n1`, the inhibition constant (Ki) on Tryptase beta-1 [1] was 2700 nM. Further, the Ki app at Trypsin worked out at 68 nM.
As to `CCOC(=O)N[C@@H](CCCCN)C(=O)c1noc(Cc2ccc(OCCc3ccccc3)cc2)n1`, the inhibition constant Ki in [2] is above 150000 nM; at Tryptase [6] it was 43.5 nM; on Tryptase [7], 5.5 nM; on Tryptase beta-1 [8] it was 46.5 nM; on Tryptase [9], 380 nM. Further, in data set [3], the peak level (Cmax) was 590 nM. For the same molecule, the clearance in [4] is 93 mL/min/kg. The figures for the Vd in data set [5] and in [10] were 0.91 L/kg and 7 L/kg, respectively. In addition, the AUC (in general, the area under the concentration-time curve, a measure of exposure) in data set [11] was 0.183 µM·h. The Fa in [12] was found to be 18%. In addition, the bioavailability (commonly the share of a dose that reaches the circulation, judged against a reference dose that is usually intravenous) amounted to 8.4% in data set [13] and 68% in data set [14].
Regarding `COc1ccc(CCOc2ccc(Cc3nc(C(=O)[C@H](CCCCN)NC(=O)OCc4ccccc4)no3)cc2)cc1`, affinity on Tryptase beta-1 [1] was put at a Ki of 19 nM. On Trypsin, the Ki app turned out to be 34 nM.
As to `COc1ccc(CCOc2ccc(Cc3nc(C(=O)[C@H](CCCCN)NC(=O)OCc4ccccc4)no3)cc2)cc1OC`, affinity on Tryptase beta-1 [1] was put at a Ki of 24 nM. On Trypsin, this molecule yielded a Ki app of 11 nM.
As to `NCCCC[C@H](NC(=O)OCc1ccccc1)C(=O)c1noc(Cc2ccc(OCCc3ccc(Cl)c(Cl)c3)cc2)n1`, on Tryptase beta-1 [1], the inhibition constant (Ki) was determined as 10 nM. Also, the Ki app at Trypsin turned out to be 280 nM.
Taken in the same sequence, the figures for `NCCCC[C@H](NC(=O)OCc1ccccc1)C(=O)c1noc(Cc2ccc(OCCc3cccc4ccccc34)cc2)n1` were 78 nM and 95 nM.
For the molecule `NCCCC[C@H](NC(=O)OCc1ccccc1)C(=O)c1noc(Cc2ccc(OCc3ccccc3)cc2)n1`, the affinity at Tryptase beta-1 [1], expressed as Ki, was 180 nM. In addition, the Ki app on Trypsin came out at 24 nM.
In turn, `NCCCC[C@H](NC(=O)OCc1ccccc1)C(=O)c1noc(Cc2ccc(OCCc3ccc4ccccc4c3)cc2)n1` yielded an inhibition constant (Ki) on Tryptase beta-1 [1] of 27 nM. Moreover, the Ki app at Trypsin was determined as 140 nM.
In the case of `NCCCC[C@H](NC(=O)OCc1ccccc1)C(=O)c1noc(Cc2ccc(OCCc3ccccc3)cc2)n1`, the Ki app on Trypsin amounted to 35 nM.
`NCCCC[C@H](NC(=O)OCc1ccccc1)C(=O)c1noc(Cc2ccc(OCCc3ccc(F)cc3)cc2)n1` registered a Ki on Tryptase beta-1 [1] of 16 nM. The same molecule gave a Ki app at Trypsin of 110 nM.
At Tryptase beta-1 [1], `NCCCC[C@H](NC(=O)OCc1ccccc1)C(=O)c1noc(Cc2ccc(OCCc3ccc(Cl)cc3)cc2)n1` had an inhibitory constant (Ki) of 14 nM. The Ki app at Trypsin came out at 270 nM.
As for `COc1cccc(CCOc2ccc(Cc3nc(C(=O)[C@H](CCCCN)NC(=O)OCc4ccccc4)no3)cc2)c1`, the Ki at Tryptase beta-1 [1] stood at 41 nM. At Trypsin, the Ki app amounted to 59 nM.
Turning to `NCCCC[C@H](NC(=O)OCc1ccccc1)C(=O)c1noc(Cc2ccc(OCCCc3ccccc3)cc2)n1`, the inhibition constant (Ki) at Tryptase beta-1 [1] turned out to be 25 nM. Further, the Ki app at Trypsin amounted to 41 nM.
Taken in the same sequence, the figures for `NCCCC[C@H](NC(=O)OCc1ccccc1)C(=O)c1noc(Cc2ccc(OCCC3CCCCC3)cc2)n1` were 1100 nM and 1000 nM.
For `NCCCC[C@H](NC(=O)OCc1ccccc1)C(=O)c1noc(Cc2cccc(OCCCc3ccccc3)c2)n1`, affinity at Tryptase beta-1 [1] was put at a Ki of 120 nM. Further, at Trypsin, the Ki app was 92 nM.
In turn, `NCCCC[C@H](NC(=O)OCc1ccccc1)C(=O)c1noc(Cc2ccc(OCCc3ccc(Cl)cc3Cl)cc2)n1` registered an inhibitory constant (Ki) on Tryptase beta-1 [1] of 96 nM. The molecule also yielded a Ki app on Trypsin of 410 nM.

The values above are taken from ChEMBL document CHEMBL1146026, “Novel, potent, selective, and orally bioavailable human betaII-tryptase inhibitors” (Bioorg Med Chem Lett, 2006).
